The results in this text go back to patent US7173062B2, “Method for the improvement of skin wrinkles using retinyl retinoate” (Enprani Co., Ltd., priority 2001, dated 2007).

Common to all, as to format: cell-based
Assay [1] has as its system Normal human fibroblast (Newborn, passage: 6). The assay is described as follows: Collagen synthesis test (Sircol collagen assay). The following applies: for increasing effect for collagen synthesis over control group treated only by DMEM: 2 days. On the procedure:
The effect for collagen synthesis of the compound of formula (1) was examined by using retinol, retinoic acid, and derivatives thereof as comparison compounds to confirm its utility as inhibitors for skin aging as follows. The results are represented in FIG. 2.
Cell: Normal human fibroblast (Newborn, passage: 6)
Medium: DMEM containing 10% FBS→DMEM free of FBS was used when cells were treated with samples.
Concentration: A range of concentration where the samples exert no toxicity to the cells was selected through a cell toxicity test ? 0.000001%, 0.00001%(w/v)
Procedure: 1×10^5 cells/well were inoculated into a 6-well plate. Cells were cultured to show about 79–80% confluent. Cells were treated with test samples and incubated for 2 days (FBS was not added to the medium when cells were treated with samples). After 2 days, cell medium and cells were separated from each other and respectively stored in a refrigerator. The cell extract was subjected to the protein analysis (BCA Protein Assay Kit, PIERCE 23225) and the medium was subjected to collagen analysis.
After the medium was removed, a small amount of PBS was added. Cells were scraped with a scraper. 1N NaOH (100 μl) and distilled water (400 μl) were added and the resulting mixture was allowed to stand overnight. Then, the protein analysis was carried out.
Collagen analysis: Analysis kit (Sircol Collagen assay kit—a dye that specifically combines with soluble collagen is used)
1.0 ml of Sircol Dye Reagent was introduced into each tube and mixed for 30 minutes. The mixture was centrifuged for 10 minutes at 5,000 g or more and the supernatant was removed. 1.0 ml Sircol Alkali Reagent was added, slowly mixed, and absorbance at 540 nm was measured. The amount of protein was converted into the value of collagen analysis (see: Mechanism of Aging and Development 73, 179–187, 1994).
After the above experiment, the increasing ratio for collagen synthesis of the test group over the control group treated only by DMEM was depicted in FIG. 2.

Another assay addresses T1, RAR α (Homo sapiens, UniProt P10276).
T1 construct: expressed in transfected cells; host or cells: HaCaT
T1 sequence (P10276 1-462): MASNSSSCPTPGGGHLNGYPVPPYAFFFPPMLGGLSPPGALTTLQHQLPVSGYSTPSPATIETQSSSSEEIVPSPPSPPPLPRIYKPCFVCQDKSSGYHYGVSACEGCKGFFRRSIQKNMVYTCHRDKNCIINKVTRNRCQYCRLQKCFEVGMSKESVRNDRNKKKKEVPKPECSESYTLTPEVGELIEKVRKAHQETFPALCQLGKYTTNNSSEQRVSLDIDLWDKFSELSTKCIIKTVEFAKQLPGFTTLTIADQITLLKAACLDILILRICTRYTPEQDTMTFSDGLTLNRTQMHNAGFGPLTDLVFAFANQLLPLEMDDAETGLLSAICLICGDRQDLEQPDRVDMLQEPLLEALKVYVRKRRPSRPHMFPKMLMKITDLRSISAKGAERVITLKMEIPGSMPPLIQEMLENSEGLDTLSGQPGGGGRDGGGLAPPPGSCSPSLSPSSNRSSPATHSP
The assay is described as follows: Activity for RAR α (CAT reporter in HaCaT cells). As to conditions: 1 μM, CAT ELISA. On the procedure: (§1) The effect of the retinol derivatives on the activity of RAR and RXR was examined as follows.
(§2) Experimental procedure: Recombinant gene of DR5-tk-CAT or DR1-tk-CAT comprising DR1 or DR5 as a response element of RAR/RXR, […] promoter, and CAT (chloramphenicol acetyl transferase) was suitably combined with a plasmid DNA that expresses RAR α, β, γ and cotransfected to HaCaT cell line, a skin cancer cell line, with Lipofectamin (GibcoBRL). Then, the cells were incubated in DMEM/10% FBS medium for 1 day, retinol derivative was added in a concentration of 1 μM, and the cells were incubated again for 1 day under the condition of 5% CO2 and 37° C. The cells were washed with phosphate-buffered salione (PBS). Proteins were extracted from each cell, the activity of β-galactosidase was assayed, and the amount of protein was measured to determine the transfection efficiency. Further, the degree of transcription for RAR or RXR was analyzed by CAT ELISA (Roche Molecular Biochemicals, Mannheim, Germany).
Background: In an ELISA, binding on a coated surface is turned into a signal by an enzyme label.

Another assay deals with T2, RAR β (Homo sapiens, UniProt P10826).
T2 construct: expressed in transfected cells; host or cells: HaCaT
T2 sequence (P10826 1-455): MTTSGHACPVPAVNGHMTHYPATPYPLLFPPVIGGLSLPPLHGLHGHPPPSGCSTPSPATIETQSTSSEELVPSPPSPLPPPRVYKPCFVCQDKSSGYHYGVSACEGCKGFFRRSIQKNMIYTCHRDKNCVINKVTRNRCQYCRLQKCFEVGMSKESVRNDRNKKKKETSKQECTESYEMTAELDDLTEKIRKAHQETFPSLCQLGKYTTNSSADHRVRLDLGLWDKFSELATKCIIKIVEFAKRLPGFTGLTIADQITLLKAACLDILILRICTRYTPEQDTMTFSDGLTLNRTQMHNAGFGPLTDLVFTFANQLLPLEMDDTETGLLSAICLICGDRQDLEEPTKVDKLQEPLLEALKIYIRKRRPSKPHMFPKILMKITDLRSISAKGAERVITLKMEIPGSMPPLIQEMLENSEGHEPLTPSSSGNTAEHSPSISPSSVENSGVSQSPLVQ
The assay is described as follows: Activity for RAR β (CAT reporter in HaCaT cells). As to conditions: 1 μM, CAT ELISA. On the procedure: as §1, §2

A further assay concerns the target T3, RAR γ (Homo sapiens, UniProt P13631).
T3 construct: expressed in transfected cells; host or cells: HaCaT
T3 sequence (P13631 1-454): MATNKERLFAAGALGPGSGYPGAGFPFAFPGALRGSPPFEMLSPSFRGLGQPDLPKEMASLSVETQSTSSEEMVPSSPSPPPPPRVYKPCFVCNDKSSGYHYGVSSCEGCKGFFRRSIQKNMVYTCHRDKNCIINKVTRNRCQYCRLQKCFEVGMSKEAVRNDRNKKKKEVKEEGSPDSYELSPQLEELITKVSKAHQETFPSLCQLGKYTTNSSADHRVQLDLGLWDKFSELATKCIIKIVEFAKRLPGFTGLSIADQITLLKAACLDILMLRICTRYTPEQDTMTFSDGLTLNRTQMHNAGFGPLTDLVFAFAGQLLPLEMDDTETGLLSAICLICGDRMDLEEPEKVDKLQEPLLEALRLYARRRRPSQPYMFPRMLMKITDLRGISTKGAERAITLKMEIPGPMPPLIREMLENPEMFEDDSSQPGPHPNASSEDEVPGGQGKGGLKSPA
The assay is described as follows: Activity for RAR γ (CAT reporter in HaCaT cells). As to conditions: 1 μM, CAT ELISA. On the procedure: as §1, §2

[2] abbreviates: Control = 1.0, listed as compound of formula (1).

Entries after “also recorded” stand apart in the source; their conditions may differ.

Consider `CC1=C(/C=C/C(C)=C/C=C/C(C)=C/COC(=O)/C=C(C)/C=C/C=C(C)/C=C/C2=C(C)CCCC2(C)C)C(C)(C)CCC1` [Compound of formula (1), Retinyl retinoate], for which the “effect for collagen synthesis (FIG. 2), comparison in words” value in assay [1] (0.000001%, 0.00001%(w/v), human fibroblast) is recorded as “superior effect for collagen synthesis at low concentration to retinol or retinoic acid”. The “collagen synthesis effect relative to retinol at the same concentration” value in assay [1] (10^−6% (W/V)) is “about 10 times”. Moreover, the “increasing effect for collagen synthesis over control group treated only by DMEM” value in assay [1] (10^−6% (W/V), human fibroblast) is 41.29%. Also, the “Relative activity against RAR α” value on RAR α (Control = 1.0) is 22.5; on RAR α (setting [2]), “relatively specific and high activity”. For the same compound, the “Relative activity against RAR β” value was 1.5 at RAR β (Control = 1.0) and “lower activity than retinoic acid but higher one than retinol; also recorded: low activity” on RAR β (setting [2]). Further, the entries for the “Relative activity against RAR γ” value at RAR γ (Control = 1.0) and on RAR γ (setting [2]) were 1.1 and “lower activity than retinoic acid but higher one than retinol; also recorded: low activity”, respectively.

As for `CC1=C(/C=C/C(C)=C/C=C/C(C)=C/CO)C(C)(C)CCC1` [Retinol], the “increasing effect for collagen synthesis over control group treated only by DMEM” value in assay [1] (10^−6% (W/V), human fibroblast) is listed as 4.94%. Further, on RAR α (Control = 1.0), the “Relative activity against RAR α” value is given as 27.5. Besides, the “Relative activity against RAR β” value at RAR β (Control = 1.0) is 1.3. For the same compound, the “Relative activity against RAR γ” value on RAR γ (Control = 1.0) was 0.9.
